Experimental data: publication PMC5318233 (Cancer letters, 2016)

What was measured:
[1] = target: complex I (NADH-ubiquinone oxidoreductase); type: biochemical
[2] = target: complex III (electron transport chain); type: biochemical

- Ki [2]: 32 µM
Structure (SMILES): Cc1ccc(Sc2cccc3[nH]c4nc(N)nc(N)c4c23)cc1 [AG311]
- Ki [1]: 0.84 µM
